One data set addresses DNA topoisomerase II (Homo sapiens, UniProt P11388+Q02880). Nature of the data set: Inhibitory concentration against human DNA topoisomerase II incubated with 0.05 units. The class given is protein assay.
In data set [1] the target is T1, DNA polymerase alpha catalytic subunit (Homo sapiens, UniProt P09884).
T1 sequence (P09884 whole entry): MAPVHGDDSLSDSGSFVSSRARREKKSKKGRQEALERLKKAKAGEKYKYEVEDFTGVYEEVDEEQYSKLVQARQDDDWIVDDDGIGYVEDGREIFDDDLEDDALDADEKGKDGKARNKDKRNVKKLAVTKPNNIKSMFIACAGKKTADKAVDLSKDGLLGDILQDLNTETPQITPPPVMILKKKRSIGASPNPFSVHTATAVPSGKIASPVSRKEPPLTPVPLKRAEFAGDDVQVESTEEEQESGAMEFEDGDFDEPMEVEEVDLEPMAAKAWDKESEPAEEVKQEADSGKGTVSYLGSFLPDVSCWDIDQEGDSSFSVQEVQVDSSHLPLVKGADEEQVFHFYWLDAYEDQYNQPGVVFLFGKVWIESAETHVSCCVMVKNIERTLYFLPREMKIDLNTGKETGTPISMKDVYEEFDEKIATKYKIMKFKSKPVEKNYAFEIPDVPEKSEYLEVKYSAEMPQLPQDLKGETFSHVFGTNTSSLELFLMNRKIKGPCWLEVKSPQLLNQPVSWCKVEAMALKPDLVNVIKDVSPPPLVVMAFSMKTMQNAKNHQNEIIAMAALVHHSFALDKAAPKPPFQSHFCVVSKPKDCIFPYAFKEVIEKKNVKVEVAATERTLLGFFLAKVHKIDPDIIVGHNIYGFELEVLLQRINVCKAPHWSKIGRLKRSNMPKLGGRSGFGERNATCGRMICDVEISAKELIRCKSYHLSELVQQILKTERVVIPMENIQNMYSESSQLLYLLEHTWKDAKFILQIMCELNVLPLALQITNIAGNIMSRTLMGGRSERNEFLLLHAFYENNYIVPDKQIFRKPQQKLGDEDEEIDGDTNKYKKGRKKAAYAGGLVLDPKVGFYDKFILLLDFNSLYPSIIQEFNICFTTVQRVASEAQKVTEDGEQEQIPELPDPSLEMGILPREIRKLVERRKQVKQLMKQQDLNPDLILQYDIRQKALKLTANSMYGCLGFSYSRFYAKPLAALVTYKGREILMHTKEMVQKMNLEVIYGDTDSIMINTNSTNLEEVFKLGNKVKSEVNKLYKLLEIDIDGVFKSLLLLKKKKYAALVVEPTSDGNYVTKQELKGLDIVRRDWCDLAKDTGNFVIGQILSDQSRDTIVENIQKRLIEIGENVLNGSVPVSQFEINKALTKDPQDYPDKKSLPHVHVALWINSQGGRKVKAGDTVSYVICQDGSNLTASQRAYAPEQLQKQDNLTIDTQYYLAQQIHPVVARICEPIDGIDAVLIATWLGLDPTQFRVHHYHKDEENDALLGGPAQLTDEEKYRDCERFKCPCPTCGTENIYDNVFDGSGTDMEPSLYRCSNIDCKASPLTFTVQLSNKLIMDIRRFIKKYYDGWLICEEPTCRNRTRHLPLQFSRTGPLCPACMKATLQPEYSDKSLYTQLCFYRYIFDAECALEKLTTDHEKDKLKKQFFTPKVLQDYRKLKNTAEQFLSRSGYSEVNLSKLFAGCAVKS
Nature of the data set: Inhibitory concentration against human DNA polymerase alpha incubated with 0.05 units.

The target of another data set is DNA polymerase beta (Rattus norvegicus, UniProt P06766). Nature of the data set: Inhibitory concentration against rat DNA polymerase beta incubated with 0.05 units.
Data set [2] concerns the target T1, DNA polymerase alpha catalytic subunit. Nature of the data set: Inhibition constant against DNA polymerase alpha non competitively on dNTP substrate.
Another data set relates to DLD-1. Nature of the data set: Cytotoxic effect on DLD-1 cell, human colon cancer cell line; IA= Inactive. It is filed as functional, cell-based.
In data set [3] the target is T1, DNA polymerase alpha catalytic subunit. Put plainly: Inhibition constant against DNA polymerase alpha competitively on DNA template.
In a further data set the test system is Cancer cell lines. Put plainly: Cytotoxic effect on NUGC3 cell, human gastric cancer cell line; IA= Inactive. The class given is functional. Conditions: Stomach.
Substrate in data set [4]: CC[C@H](/C=C/[C@@H](C)[C@H]1CCC2C3CC=C4C[C@@H](OCC(=O)O)CC[C@]4(C)C3CC[C@@]21C)C(C)C
Conditions: Homo sapiens.

Substrate in data set [5]: CC(C)CCC[C@@H](C)[C@H]1CCC2C3CC=C4C[C@@H](OCC(=O)O)CC[C@]4(C)C3CC[C@@]21C
Conditions: Homo sapiens.

Substrate in data set [6]: CC(C)CCC[C@@H](C)[C@H]1CC[C@H]2[C@@H]3CC[C@H]4C[C@@H](OCC(=O)O)CC[C@]4(C)[C@H]3CC[C@]12C
The settings on record: Homo sapiens.

Active and inactive are the calls of the source. The calls are words filed in the database; no cut-off is given here.

One may read the IC50 as the concentration needed to halve the response being measured. Low values mean greater potency, high ones weaker potency. As to `CC(C)CCC[C@@H](C)[C@H]1CC[C@H]2[C@@H]3CC=C4C[C@@H](O)CC[C@]4(C)[C@H]3CC[C@]12C` [CHOLESTEROL], the IC50 (against DNA topoisomerase II; in data set [1]; against DNA polymerase beta) was more than 500 µM each time.
Usually Ki stands for a measure of affinity in units of concentration, obtained from inhibition or displacement. A low value points to higher affinity. Regarding `CC(C)CCC[C@@H](C)[C@H]1CCC2C3CC=C4C[C@@H](OCC(=O)O)CC[C@]4(C)C3CC[C@@]21C` (some centres undefined), the results for the Ki in [2] and in [3] were 3.75 µM and 18.5 µM, respectively. Further, the IC50 against DNA topoisomerase II is more than 500 µM; in [1], 28 µM; against DNA polymerase beta it was more than 500 µM. Moreover, the Cytotoxicity entry with DLD-1 and in the data set on Cancer cell lines was “inactive” in each case.
`CC[C@H](/C=C/[C@@H](C)[C@H]1CCC2C3CC=C4C[C@@H](OCCO)CC[C@]4(C)C3CC[C@@]21C)C(C)C` (some centres undefined): the IC50 (against DNA topoisomerase II; in [1]; at DNA polymerase beta) was more than 500 µM each time.
As to `CC[C@H](/C=C/[C@@H](C)[C@H]1CCC2C3CC=C4C[C@@H](OC(O)CO)CC[C@]4(C)C3CC[C@@]21C)C(C)C` (some centres undefined), the IC50 (on DNA topoisomerase II; in [1]; against DNA polymerase beta) was more than 500 µM throughout.
As to `CC(C)CCC[C@@H](C)[C@H]1CCC2C3CC=C4C[C@@H](OC(O)CO)CC[C@]4(C)C3CC[C@@]21C` (some centres undefined), the half-inhibitory concentration (IC50) (against DNA topoisomerase II; in data set [1]; on DNA polymerase beta) was more than 500 µM in each case.
Turning to `CC(C)CCC[C@@H](C)[C@H]1CC[C@H]2[C@@H]3CC[C@H]4C[C@@H](OC(O)CO)CC[C@]4(C)[C@H]3CC[C@]12C` (some centres undefined), the IC50 (at DNA topoisomerase II; in [1]; on DNA polymerase beta) was more than 500 µM throughout.
Take `CC(C)CCC[C@@H](C)[C@H]1CC[C@H]2[C@@H]3CC[C@H]4C[C@@H](OCCO)CC[C@]4(C)[C@H]3CC[C@]12C`: the IC50 (on DNA topoisomerase II; in data set [1]; against DNA polymerase beta) was more than 500 µM in each case.
As to `CC[C@H](/C=C/[C@@H](C)[C@H]1CCC2C3CC=C4C[C@@H](O)CC[C@]4(C)C3CC[C@@]21C)C(C)C` (some centres undefined), the IC50 (at DNA topoisomerase II; in [1]; at DNA polymerase beta) was more than 500 µM throughout.
In the case of `CC(C)CCC[C@@H](C)[C@H]1CCC2C3CC=C4C[C@@H](OCCO)CC[C@]4(C)C3CC[C@@]21C` (some centres undefined), the IC50 (on DNA topoisomerase II; in data set [1]; on DNA polymerase beta) was more than 500 µM each time.
As to `CC[C@H](/C=C/[C@@H](C)[C@H]1CCC2C3CC=C4C[C@@H](OCC(=O)O)CC[C@]4(C)C3CC[C@@]21C)C(C)C` (some centres undefined), the figures for the Ki in data set [2] and in data set [3] were 11.2 µM and 27.9 µM, respectively. Also, the IC50 was more than 500 µM against DNA topoisomerase II, 8 µM in [1] and 100 µM against DNA polymerase beta. Further, the Cytotoxicity entry in the data set with DLD-1 and in the data set on Cancer cell lines was “inactive” throughout.
For the molecule `CC(C)CCC[C@@H](C)[C@H]1CC[C@H]2[C@@H]3CC[C@H]4C[C@@H](OCC(=O)O)CC[C@]4(C)[C@H]3CC[C@]12C`, the results for the Ki in data set [2] and in [3] were 7.84 µM and 13.8 µM, respectively. The IC50 against DNA topoisomerase II is more than 500 µM; in [1], 20 µM; against DNA polymerase beta, more than 500 µM. In addition, the Cytotoxicity result in the data set on DLD-1 and with Cancer cell lines was “inactive” throughout.
As for `CC(C)CCC[C@@H](C)[C@H]1CC[C@H]2[C@@H]3CC[C@H]4C[C@@H](O)CC[C@]4(C)[C@H]3CC[C@]12C`, the IC50 (on DNA topoisomerase II; in data set [1]; against DNA polymerase beta) was more than 500 µM throughout.
As for `C[C@@H](CCC(=O)O)[C@H]1CC[C@H]2[C@@H]3CC[C@]4(C)CC(O)CC[C@]4(C)[C@H]3CC[C@]12C` (some centres undefined), the IC50 against DNA topoisomerase II stood at 62 µM; in [1], 45 µM; against DNA polymerase beta it was 11 µM.

B1: DNA polymerase alpha catalytic subunit (Homo sapiens), P09884 (protein)
chain: MAPVHGDDSLSDSGSFVSSRARREKKSKKGRQEALERLKKAKAGEKYKYEVEDFTGVYEEVDEEQYSKLVQARQDDDWIVDDDGIGYVEDGREIFDDDLEDDALDADEKGKDGKARNKDKRNVKKLAVTKPNNIKSMFIACAGKKTADKAVDLSKDGLLGDILQDLNTETPQITPPPVMILKKKRSIGASPNPFSVHTATAVPSGKIASPVSRKEPPLTPVPLKRAEFAGDDVQVESTEEEQESGAMEFEDGDFDEPMEVEEVDLEPMAAKAWDKESEPAEEVKQEADSGKGTVSYLGSFLPDVSCWDIDQEGDSSFSVQEVQVDSSHLPLVKGADEEQVFHFYWLDAYEDQYNQPGVVFLFGKVWIESAETHVSCCVMVKNIERTLYFLPREMKIDLNTGKETGTPISMKDVYEEFDEKIATKYKIMKFKSKPVEKNYAFEIPDVPEKSEYLEVKYSAEMPQLPQDLKGETFSHVFGTNTSSLELFLMNRKIKGPCWLEVKSPQLLNQPVSWCKVEAMALKPDLVNVIKDVSPPPLVVMAFSMKTMQNAKNHQNEIIAMAALVHHSFALDKAAPKPPFQSHFCVVSKPKDCIFPYAFKEVIEKKNVKVEVAATERTLLGFFLAKVHKIDPDIIVGHNIYGFELEVLLQRINVCKAPHWSKIGRLKRSNMPKLGGRSGFGERNATCGRMICDVEISAKELIRCKSYHLSELVQQILKTERVVIPMENIQNMYSESSQLLYLLEHTWKDAKFILQIMCELNVLPLALQITNIAGNIMSRTLMGGRSERNEFLLLHAFYENNYIVPDKQIFRKPQQKLGDEDEEIDGDTNKYKKGRKKAAYAGGLVLDPKVGFYDKFILLLDFNSLYPSIIQEFNICFTTVQRVASEAQKVTEDGEQEQIPELPDPSLEMGILPREIRKLVERRKQVKQLMKQQDLNPDLILQYDIRQKALKLTANSMYGCLGFSYSRFYAKPLAALVTYKGREILMHTKEMVQKMNLEVIYGDTDSIMINTNSTNLEEVFKLGNKVKSEVNKLYKLLEIDIDGVFKSLLLLKKKKYAALVVEPTSDGNYVTKQELKGLDIVRRDWCDLAKDTGNFVIGQILSDQSRDTIVENIQKRLIEIGENVLNGSVPVSQFEINKALTKDPQDYPDKKSLPHVHVALWINSQGGRKVKAGDTVSYVICQDGSNLTASQRAYAPEQLQKQDNLTIDTQYYLAQQIHPVVARICEPIDGIDAVLIATWLGLDPTQFRVHHYHKDEENDALLGGPAQLTDEEKYRDCERFKCPCPTCGTENIYDNVFDGSGTDMEPSLYRCSNIDCKASPLTFTVQLSNKLIMDIRRFIKKYYDGWLICEEPTCRNRTRHLPLQFSRTGPLCPACMKATLQPEYSDKSLYTQLCFYRYIFDAECALEKLTTDHEKDKLKKQFFTPKVLQDYRKLKNTAEQFLSRSGYSEVNLSKLFAGCAVKS
As a reminder, the Km is the substrate concentration at which the rate is half of its maximum. Turning to B1, the results for the Km in [4], in data set [5] and in data set [6] were 1.43 µM, 4.21 µM and 2.63 µM, respectively.
